# Measurements reported in US5424311A, “Azaquinoxalines and their use” (Hoeschst Aktiengesellschaft, priority 1992, dated 1995).
# pIC50: −log10 of the molar value.
# Tests used:
# [1] = target: T1, HIV reverse transcriptase (Human immunodeficiency virus type 1 group M subtype B, UniProt P04585); assay: Inhibition of HIV reverse transcriptase (scintillation proximity assay, SPA); format: biochemical; conditions: RT-SPA; RT enzyme cloned from HIV in E. coli; 60 min (37° C.)
# T1 construct: The RT enzyme (cloned from HIV in E. coli); purchased HT-Biotechnology LTD, Cambridge, UK; host or cells: E. coli
# Protocol: Investigation of the substances for inhibition of HIV reverse transcriptase
# The reverse transcriptase (RT) activity was determined by means of a scintillation proximity assay (SPA). The reagent kit for the RT-SPA was purchased from Amersham/Buchler (Braunschweig). The RT enzyme (cloned from HIV in E. coli) originated from HT-Biotechnology LTD, Cambridge, UK.
# The assay was carried out according to the method manual of the manufacturer Amersham--with the following modifications:
# Bovine serum albumin was added to the final concentration of 0.5 mg/ml to the assay buffer.
# The assay was carried out in Eppendorf reaction vessels with a volume of 100 μl of mixture.
# The RT concentrate from the manufacturer (5000 U/ml) was diluted to an activity of 15 U/ml in tris-HCl buffer 20 mM; pH 7.2; 30% glycerol.
# The incubation time for the mixtures was 60 min (37° C.).
# After stopping the reaction and "developing" with the bead suspension, 130 μl of mixture were transferred into 4.5 ml of tris-HCl buffer, 10 mM; pH 7.4; 0.15 M NaCl and the tritium activity was measured in a β-counter.
# For a preliminary test of the inhibitory activity, the substances were dissolved in DMSO (stock solution c=1 mg/ml) and tested diluted 10^-1, 10^-2, 10^-3 etc. in DMSO.
# To determine IC50 values, the inhibitor stock solutions were further diluted in tris-HCl buffer, 50 mM, pH 8 and tested in suitable concentrations.
# The concentration appertaining to 50% enzyme inhibition was found from the graph of RT activity against the logarithm of the concentration of the particular test substance.
# HIV = assay: Tests on products against HIV in cell culture (T-cell culture assay, giant cell formation in infected lymphocytes); format: cell-based; conditions: Human immunodeficiency virus 1, 72 h, lowest product concentration at which no giant cells occurred, 37° C., 3 days
# Protocol: Tests on products against HIV in cell culture
# RPMI pH 6.8 Complete medium additionally contains 20% fetal calf serum and 40 IU/ml recombinant interleukin 2.
# Lymphocytes isolated from fresh donor blood by means of ®Ficoll gradient centrifugation are cultivated in complete medium with the addition of 2 μg/ml phytohemagglutinin (Wellcome) at 37° C. under 5% CO2 for 36 h. The cells are, after addition of 10% DMSO, frozen at a cell density of 5×10^6 and stored in liquid nitrogen. For the test, the cells are thawed, washed in RPMI medium and cultivated in complete medium for 3-4 days.
# The test products were dissolved in DMSO and adjusted with complete medium to a concentration of 1 mg/ml. 0.4 ml of medium was placed in 24-well dishes. After addition of 0.1 ml of the dissolved product to the upper row of the dish, a geometric dilution series was produced by transferring 0.1 ml each time. Product-free controls always received 0.4 ml of complete medium with 0.5% DMSO. Lymphocyte cultures with a cell count of 5×10^5 cells/ml were infected by adding 1/50 of the volume of supernatant from HIV-infected lymphocyte cultures. The titer of these culture supernatants was determined by endpoint dilution to be 1-5×10^6 infectious units/mi. After incubation at 37° C. for 30 min, the infected lymphocytes were spun down and taken up again in the same volume of medium. 0.6 ml portions of this cell suspension were placed in all the wells of the assay plate. The mixtures were incubated at 37° C. for 3 days.
# The infected cell cultures were examined under the microscope for the presence of giant cells which indicate active virus replication in the culture. The lowest product concentration at which no giant cells occurred was determined as the HIV inhibitory concentration. As a control, the supernatants from the culture plates were examined for the presence of HIV antigen with the aid of an HIV antigen assay in accordance with the information from the manufacturer (Organon).
SMILES,pIC50 [1],MIC (HIV) [µg/mL]
"C[C@@H]1Nc2nc(Cl)ccc2NC1=O [Example 2, (3S)-6-Chloro-3-methyl-3,4-dihydro-1,4,5-triazanaphthalen-2(1H)-one]",4.30 to 5.30,> 0.8
"CSCC1C(=S)Nc2cccnc2N1C(=O)OC(C)C (stereo not drawn) [Example 37, 4-Isopropoxycarbonyl-3-methylthiomethyl-3,4-dihydro-1,4,5-triazanaphthalene-2(1H)-thione]",5.49 to 6.49,> 1
"CC(C)=CCN1c2nc(Cl)ccc2NC(=O)[C@@H]1C [Example 8, (3S)-6-Chloro-3-methyl-4-(3-methyl-2-butenyl)-3,4-dihydro-1,4,5-triazanaphthalen-2(1H)-one]",5.42 to 6.42,0.08
"C=C(C)OC(=O)N1C(=O)[C@H](C)N(C(=O)OC(=C)C)c2nc(Cl)ccc21 [Example 10, (3S)-6-Chloro-1,4-his(isopropenyloxycarbonyl)-3-methyl-3,4-dihydro-1,4,5-triazanaphthalen-2(1H)-one]",5.56 to 6.56,1
"CC(C)OC(=O)N1c2ncccc2NC(=O)C1CS(C)(=O)=O (stereo not drawn) [Example 41, 3-Methylsulfonylmethyl-4-isopropoxycarbonyl-3,4-dihydro-1,4,5-triazanaphthalen-2(1H)-one]",,> 2
"C=C(C)OC(=O)N1c2nc(C)ccc2NC(=S)C1C (racemic) [Example 20, (3RS)-4-(Isopropenyloxycarbonyl)-3,6-dimethyl-3,4-dihydro-1,4,5-triazanaphthalene-2(1H)-thione]",4.44 to 5.44,
"C[C@H]1C(=O)Nc2ccc(Cl)nc2N1Cc1ccccn1 [Example 11, (3S)-6-Chloro-3-methyl-4-(2-picolyl)-3,4-dihydro-1,4,5-triazanaphthalen-2(1H)-one]",5.46 to 6.46,0.2
